Non-standard residues stand in square brackets, D forms with d. Residues, ends and D or L forms follow the SMILES beside them. Trp(6-Cl) = N[C@@H](Cc1c[nH]c2cc(Cl)ccc12)C(=O)O; Phe(4-Cl) = N[C@@H](Cc1ccc(Cl)cc1)C(=O)O; Phe(4-F) = N[C@@H](Cc1ccc(F)cc1)C(=O)O; 2Thi = N[C@@H](Cc1cccs1)C(=O)O; NMeL = CN[C@@H](CC(C)C)C(=O)O; NMeNle = CCCC[C@H](NC)C(=O)O; Tle = CC(C)(C)[C@H](N)C(=O)O; dPip = O=C(O)[C@H]1CCCCN1; NMeA = CN[C@@H](C)C(=O)O
The compounds below were run against T1, Human MDM2 (HDM2) 1-116 (Homo sapiens, UniProt Q00987) (assay: Fluorescence polarization assay, MDM2/p53 (Table 3)).
T1 construct: Human MDM2 (HDM2) 1-116
Type: binding
Protocol: (§1) Human MDM2 (HDM2) 1-116 (20 μL) and FITC-labeled p53 (18-26), 50 nM and 10 nM respectively in 10 mM Tris, 50 mM NaCl, 0.01% Tween20, and 1 mM DTT at pH 7.4 were dispensed into an opaque, black, 384 well plate. Compounds dissolved in DMSO were pin transferred (˜200 nL) to the 384 well plate containing the MDM2/p53 solution. After incubation for 10 minutes, the fluorescence polarization was read on a Molecular Devices SpectraMax plate reader equipped with a Fluorescein FP cartridge. In addition to probe alone (positive control) and probe/MDM2 (negative control), a titration of linear p53(18-26) was included on every plate as an additional control. IC50 values were fit using either Prism or Collaborative Drug Discovery.
as §1, with “and FAM-labeled RFMDYWEGL-NH2,” for “and FITC-labeled p53 (18-26),”, “NaCl, 0.010%” for “NaCl, 0.01%”, “transferred (˜100-200” for “transferred (˜200”, “for 60” for “for 10”

T1 sequence (Q00987 1-116): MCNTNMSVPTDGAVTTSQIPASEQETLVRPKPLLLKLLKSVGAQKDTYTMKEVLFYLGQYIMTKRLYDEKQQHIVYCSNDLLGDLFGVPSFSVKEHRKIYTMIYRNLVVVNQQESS

| Compound | IC50 |
| --- | --- |
| CC(C)C[C@@H]1NC(=O)[C@H](Cc2c[nH]c3cc(Cl)ccc23)NC(=O)[C@H](CCC(=O)O)NC(=O)[C@H](Cc2ccccc2)NC(=O)[C@@H]2CCCN2C(=O)[C@H]2CCCN2C(=O)[C@H](Cc2ccccc2)NC(=O)[C@H](CCC(=O)O)NC(=O)[C@H](Cc2c[nH]c3ccccc23)NC(=O)[C@H](CC(=O)O)NC1=O [Compound 1, [H]OC(=O)CC[C@@H]1NC(=O)[C@H](Cc2cn([H])c3ccccc23)NC(=O)[C@H](CC(=O)O[H])NC(=O)[C@H](CC(C)C)NC(=O)[C@H](Cc2c[nH]c3cc(Cl)ccc23)NC(=O)[C@H](CCC(=O)O[H])NC(=O)[C@H](Cc2ccccc2)NC(=O)[C@@H]2CCCN2C(=O)[C@H]2CCCN2C(=O)[C@H](Cc2ccccc2)NC1=O] (cyclo(FE[Trp(6-Cl)]LDWEF[dP]P)) | < 1000 nM |
| CC(C)C[C@@H]1NC(=O)[C@H](Cc2c[nH]c3ccccc23)NC(=O)[C@H](CCC(=O)O)NC(=O)[C@H](Cc2ccccc2)NC(=O)[C@@H]2CCCN2C(=O)[C@H]2CCCN2C(=O)[C@H](Cc2ccccc2)NC(=O)[C@H](CCC(=O)O)NC(=O)[C@H](Cc2c[nH]c3ccccc23)NC(=O)[C@H](CC(=O)O)NC1=O [Compound 2, [H]OC(=O)CC[C@@H]1NC(=O)[C@H](Cc2cn([H])c3ccccc23)NC(=O)[C@H](CC(=O)O[H])NC(=O)[C@H](CC(C)C)NC(=O)[C@H](Cc2cn([H])c3ccccc23)NC(=O)[C@H](CCC(=O)O[H])NC(=O)[C@H](Cc2ccccc2)NC(=O)[C@@H]2CCCN2C(=O)[C@H]2CCCN2C(=O)[C@H](Cc2ccccc2)NC1=O] (cyclo(FEWLDWEF[dP]P)) | 1000 to 2500 nM |
| CC(C)C[C@H]1C(=O)N[C@@H](CC(=O)O)C(=O)N[C@@H](Cc2c[nH]c3ccccc23)C(=O)N[C@@H](CCC(=O)O)C(=O)N[C@@H](Cc2ccccc2)C(=O)N2CCC[C@@H]2C(=O)N2CCC[C@H]2C(=O)N[C@@H](Cc2ccccc2)C(=O)N[C@@H](CCC(=O)O)C(=O)N[C@@H](Cc2c[nH]c3ccccc23)C(=O)N1C [Compound 3, [H]OC(=O)CC[C@@H]1NC(=O)[C@H](Cc2ccccc2)NC(=O)[C@@H]2CCCN2C(=O)[C@H]2CCCN2C(=O)[C@H](Cc2ccccc2)NC(=O)[C@H](CCC(=O)O[H])NC(=O)[C@H](Cc2cn([H])c3ccccc23)NC(=O)[C@H](CC(=O)O[H])NC(=O)[C@H](CC(C)C)N(C)C(=O)[C@H](Cc2cn([H])c3ccccc23)NC1=O] (cyclo(FEW[NMeL]DWEF[dP]P)) | < 1000 nM |
| CC(C)C[C@H]1C(=O)N[C@@H](CC(=O)O)C(=O)N[C@@H](Cc2ccc(F)cc2)C(=O)N[C@@H](CCC(=O)O)C(=O)N[C@@H](Cc2ccc(Cl)cc2)C(=O)N2CCC[C@@H]2C(=O)N2CCC[C@H]2C(=O)N[C@@H](Cc2ccccc2)C(=O)N[C@@H](CCC(=O)O)C(=O)N[C@@H](Cc2c[nH]c3ccccc23)C(=O)N1C [Compound 4, [H]OC(=O)CC[C@@H]1NC(=O)[C@H](Cc2ccccc2)NC(=O)[C@@H]2CCCN2C(=O)[C@H]2CCCN2C(=O)[C@H](Cc2ccc(Cl)cc2)NC(=O)[C@H](CCC(=O)O[H])NC(=O)[C@H](Cc2ccc(F)cc2)NC(=O)[C@H](CC(=O)O[H])NC(=O)[C@H](CC(C)C)N(C)C(=O)[C@H](Cc2cn([H])c3ccccc23)NC1=O] (cyclo(FEW[NMeL]D[Phe(4-F)]E[Phe(4-Cl)][dP]P)) | < 1000 nM |
| CC(C)C[C@H]1C(=O)N[C@@H](CC(=O)O)C(=O)N[C@@H](Cc2ccc(F)cc2)C(=O)N[C@@H](CCC(=O)O)C(=O)N[C@@H](Cc2ccccc2)C(=O)N2CCC[C@@H]2C(=O)N2CCC[C@H]2C(=O)N[C@@H](Cc2cccs2)C(=O)N[C@@H](CCC(=O)O)C(=O)N[C@@H](Cc2c[nH]c3ccccc23)C(=O)N1C [Compound 5, [H]OC(=O)CC[C@@H]1NC(=O)[C@H](Cc2cccs2)NC(=O)[C@@H]2CCCN2C(=O)[C@H]2CCCN2C(=O)[C@H](Cc2ccccc2)NC(=O)[C@H](CCC(=O)O[H])NC(=O)[C@H](Cc2ccc(F)cc2)NC(=O)[C@H](CC(=O)O[H])NC(=O)[C@H](CC(C)C)N(C)C(=O)[C@H](Cc2cn([H])c3ccccc23)NC1=O] (cyclo([2Thi]EW[NMeL]D[Phe(4-F)]EF[dP]P)) | < 1000 nM |
| CC(C)C[C@H]1C(=O)N[C@@H](CC(=O)O)C(=O)N[C@@H](Cc2c[nH]c3ccccc23)C(=O)N[C@@H](CCC(=O)O)C(=O)N[C@@H](Cc2ccccc2)C(=O)N2CCC[C@@H]2C(=O)N2CCC[C@H]2C(=O)N[C@@H](Cc2ccc(F)cc2)C(=O)N[C@@H](CCC(=O)O)C(=O)N[C@@H](Cc2ccc(Cl)cc2)C(=O)N1C [Compound 6, [H]OC(=O)CC[C@@H]1NC(=O)[C@H](Cc2cn([H])c3ccccc23)NC(=O)[C@H](CC(=O)O[H])NC(=O)[C@H](CC(C)C)N(C)C(=O)[C@H](Cc2ccc(Cl)cc2)NC(=O)[C@H](CCC(=O)O[H])NC(=O)[C@H](Cc2ccc(F)cc2)NC(=O)[C@@H]2CCCN2C(=O)[C@H]2CCCN2C(=O)[C@H](Cc2ccccc2)NC1=O] (cyclo([Phe(4-F)]E[Phe(4-Cl)][NMeL]DWEF[dP]P)) | < 1000 nM |
| CCCC[C@H]1C(=O)N[C@@H](Cc2ccccc2)C(=O)N2CCC[C@@H]2C(=O)N2CCC[C@H]2C(=O)N[C@@H](Cc2ccccc2)C(=O)N(C)[C@@H](CCCC)C(=O)N[C@@H](Cc2c[nH]c3ccccc23)C(=O)N(C)[C@@H](CC(C)C)C(=O)N[C@@H](CC(=O)O)C(=O)N[C@@H](Cc2c[nH]c3ccccc23)C(=O)N1C [Compound 7, [H]OC(=O)C[C@@H]1NC(=O)[C@H](CC(C)C)N(C)C(=O)[C@H](Cc2cn([H])c3ccccc23)NC(=O)[C@H](CCCC)N(C)C(=O)[C@H](Cc2ccccc2)NC(=O)[C@@H]2CCCN2C(=O)[C@H]2CCCN2C(=O)[C@H](Cc2ccccc2)NC(=O)[C@H](CCCC)N(C)C(=O)[C@H](Cc2cn([H])c3ccccc23)NC1=O] (cyclo(F[NMeNle]W[NMeL]DW[NMeNle]F[dP]P)) | ≥ 5000 nM |
| C[C@H]1C(=O)N[C@@H](Cc2ccc(Cl)cc2)C(=O)N2CCCC[C@@H]2C(=O)N2CCC[C@H]2C(=O)N[C@@H](Cc2ccccc2)C(=O)N[C@@H](CCC(=O)O)C(=O)N[C@@H](Cc2ccc(O)cc2)C(=O)N2CCC[C@@H]2C(=O)N(C)[C@@H](C)C(=O)N[C@@H](Cc2ccc(F)cc2)C(=O)N1C [Compound 8, [H]OC(=O)CC[C@@H]1NC(=O)[C@H](Cc2ccccc2)NC(=O)[C@@H]2CCCN2C(=O)[C@H]2CCCCN2C(=O)[C@H](Cc2ccc(Cl)cc2)NC(=O)[C@H](C)N(C)C(=O)[C@H](Cc2ccc(F)cc2)NC(=O)[C@H](C)N(C)C(=O)[C@H]2CCCN2C(=O)[C@H](Cc2ccc(O[H])cc2)NC1=O] (cyclo(EY[dP][NMeA][Phe(4-F)][NMeA][Phe(4-Cl)][dPip]PF)) | 2500 to 5000 nM |
| C[C@H]1C(=O)N[C@@H](Cc2ccc(F)cc2)C(=O)N[C@@H](CCC(=O)O)C(=O)N[C@@H](Cc2ccccc2)C(=O)N2CCCC[C@@H]2C(=O)N2CCC[C@H]2C(=O)N[C@@H](Cc2ccccc2)C(=O)N[C@@H](CCC(=O)O)C(=O)N[C@@H](Cc2c[nH]c3ccccc23)C(=O)N2CCC[C@@H]2C(=O)N1C [Compound 9, [H]OC(=O)CC[C@@H]1NC(=O)[C@H](Cc2ccccc2)NC(=O)[C@@H]2CCCN2C(=O)[C@H]2CCCCN2C(=O)[C@H](Cc2ccccc2)NC(=O)[C@H](CCC(=O)O[H])NC(=O)[C@H](Cc2ccc(F)cc2)NC(=O)[C@H](C)N(C)C(=O)[C@H]2CCCN2C(=O)[C@H](Cc2cn([H])c3ccccc23)NC1=O] (cyclo(EF[dPip]PFEW[dP][NMeA][Phe(4-F)])) | < 1000 nM |
| C[C@H]1C(=O)N[C@@H](Cc2ccc(Cl)cc2)C(=O)N2CCCC[C@@H]2C(=O)N2CCC[C@H]2C(=O)N[C@@H](Cc2ccccc2)C(=O)N[C@@H](C(C)(C)C)C(=O)N[C@@H](Cc2ccc(O)cc2)C(=O)N2CCC[C@@H]2C(=O)N(C)[C@@H](C)C(=O)N[C@@H](Cc2ccc(F)cc2)C(=O)N1C [Compound 10, [H]Oc1ccc(C[C@@H]2NC(=O)[C@@H](NC(=O)[C@H](Cc3ccccc3)NC(=O)[C@@H]3CCCN3C(=O)[C@H]3CCCCN3C(=O)[C@H](Cc3ccc(Cl)cc3)NC(=O)[C@H](C)N(C)C(=O)[C@H](Cc3ccc(F)cc3)NC(=O)[C@H](C)N(C)C(=O)[C@H]3CCCN3C2=O)C(C)(C)C)cc1] (cyclo(F[Tle]Y[dP][NMeA][Phe(4-F)][NMeA][Phe(4-Cl)][dPip]P)) | 1000 to 2500 nM |
| C[C@H]1C(=O)N[C@@H](Cc2ccc(Cl)cc2)C(=O)N2CCCC[C@@H]2C(=O)N2CCC[C@H]2C(=O)N[C@@H](Cc2ccccc2)C(=O)N[C@@H](C(C)(C)C)C(=O)N[C@@H](Cc2ccc(O)cc2)C(=O)N2CCC[C@@H]2C(=O)N(C)[C@@H](C)C(=O)N[C@@H](Cc2ccc(F)cc2)C(=O)N1C [Compound 11, [H]Oc1ccc(C[C@@H]2NC(=O)[C@@H](NC(=O)[C@H](Cc3ccccc3)NC(=O)[C@@H]3CCCN3C(=O)[C@H]3CCCCN3C(=O)[C@H](Cc3ccc(Cl)cc3)NC(=O)[C@H](C)N(C)C(=O)[C@H](Cc3ccc(F)cc3)NC(=O)[C@H](C)N(C)C(=O)[C@H]3CCCN3C2=O)C(C)(C)C)cc1] (cyclo(F[Tle]Y[dP][NMeA][Phe(4-F)][NMeA][Phe(4-Cl)][dPip]P)) | ≥ 5000 nM |
